These results are taken from patent US12692264B2, “Pyrimidine or pyridine derivative, preparation method therefor, and application thereof in pharmacy” (ABBISKO THERAPEUTICS CO., LTD., priority 2021, dated 2026).

The term IC50 denotes the concentration needed to halve the response being measured. Read a low IC50 as greater potency in that assay.

Common to all, as to format: cell-based
The subject of one experiment is A431 (EGFR-WT). The experiment in a line: Cell proliferation study (CellTiter-Glo, 72 hrs), A431. The following applies: Homo sapiens, A-431, A431 cells, CTG, * = average of multiple measurements. In outline: (§1)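 Cells were seeded overnight, then exposed for 72 hrs at 37 °C, 5% CO2 to 9 concentrations in 3.16-fold steps, 0.1% DMSO final, triplicate wells. Viability was read by CellTiter-Glo luminescence, with a T0 plate read at dosing. IC50 came from nonlinear sigmoidal dose-response fits.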
(Cellular ATP, detected with luciferase, serves as a proxy for viable cell number.)

In experiment [1] the target is Ba/F3 EGFR-V769_D770insASV (Homo sapiens, UniProt P00533, DUP767-769, cells depend on it). In words: Cell proliferation study (CellTiter-Glo, 72 hrs), Ba/F3 EGFR-V769_D770insASV. The following applies: CTG, * = average of multiple measurements, read-out: Ba/F3 EGFR-V769_D770insASV IC50. The method, then:
(I) Reagents and Materials
• Fetal bovine serum FBS (GBICO, Cat #10099-141); • CellTiter-Glo® luminescent cell viability assay kit (Promega, Cat #G7572); • Black transparent flat-bottom 96-well plate (Corning®, Cat #3603). (II) Instruments • SpectraMax multi-label microplate reader MD, 2104-0010A; • Carbon dioxide incubator, Thermo Scientific 3100 series; • Biological safety cabinet, Thermo Scientific, 1300 series model A2; • Inverted microscope, Olympus, CKX41SF; • Siemens refrigerator KK25E76T1. (III) Cell Lines and Culture Conditions
(IV) Experimental Procedures 1. Cell Culture and Inoculation: • (1) Cells in the logarithmic growth phase were harvested and counted using a […]. The cell viability was determined by the trypan blue dye exclusion method to ensure cell viability above 90%. • (2) The cell concentration was adjusted to reach a desired final density; 90 μL of cell suspension was added to a 96-well plate. • (3) The cells were incubated overnight in the 96-well plate at 37° C., 5% CO2 and with 95% humidity. 2. T0 Benchmark Data: • (1) 10 μL of PBS was added to each well of the TO plate containing the cells. • (2) The CTG reagent was thawed and the cell plate was equilibrated to room temperature for 30 min. • (3) An equal volume of CTG solution was added to each well. • (4) The cells were lysed by shaking on an orbital shaker for 5 min. • (5) The cell plate was left to stand at room temperature for 20 min to stabilize the fluorescence signal. • (6) The fluorescence signal values of TO were read. 3. Dilution and Addition of Compounds • (1) According to the compound information table, a corresponding volume of DMSO was added to the corresponding compound powder to prepare a 10 mM stock solution. • (2) A 1000-fold, 3.16-fold-diluted compound solution was prepared. • (3) The 1000× diluted compound solution was diluted 100-fold with PBS to prepare a 10-fold compound solution with a maximum concentration of 10 μM, including 9 concentrations, with 3.16-fold dilution, and 10 μL of the medicament solution was added to each well of the 96-well plate to seed the cells. Triplicate wells were set for each compound concentration, with a final concentration of DMSO being 0.1%. • (4) The cells were placed in the 96-well plate containing the medicament at 37° C., 5% CO2 and with 95% humidity, and cultured for 72 hrs before CTG analysis. 4. Fluorescence Signal Reading • (1) The CTG reagent was thawed and the cell plate was equilibrated to room temperature for 30 min. • (2) An equal volume of CTG solution was added to each well. • (3) The cells were lysed by shaking on an orbital shaker for 5 min. • (4) The cell plate was left to stand at room temperature for 20 min to stabilize the fluorescence signal. • (5) The fluorescence values were read. 5. Data Processing
Data were analyzed using GraphPad Prism 7.0 software and fitted data were regressed using non-linear S-curves to obtain dose-response curves from which IC50 values (in nM) were calculated.

Experiment [2] has as its target Ba/F3 EGFR-D770-N771ins_SVD (Homo sapiens, UniProt P00533, DUP768-770, cells depend on it). The experiment in a line: Cell proliferation study (CellTiter-Glo, 72 hrs), Ba/F3 EGFR-D770-N771ins_SVD. The following applies: CTG, * = average of multiple measurements, read-out: Ba/F3 EGFR-D770-N771ins_SVD IC50. In outline: as §1

Ba/F3 EGFR-D770-N771ins_SVD, sequence (P00533 with tags, fused parts or gaps DUP768-770): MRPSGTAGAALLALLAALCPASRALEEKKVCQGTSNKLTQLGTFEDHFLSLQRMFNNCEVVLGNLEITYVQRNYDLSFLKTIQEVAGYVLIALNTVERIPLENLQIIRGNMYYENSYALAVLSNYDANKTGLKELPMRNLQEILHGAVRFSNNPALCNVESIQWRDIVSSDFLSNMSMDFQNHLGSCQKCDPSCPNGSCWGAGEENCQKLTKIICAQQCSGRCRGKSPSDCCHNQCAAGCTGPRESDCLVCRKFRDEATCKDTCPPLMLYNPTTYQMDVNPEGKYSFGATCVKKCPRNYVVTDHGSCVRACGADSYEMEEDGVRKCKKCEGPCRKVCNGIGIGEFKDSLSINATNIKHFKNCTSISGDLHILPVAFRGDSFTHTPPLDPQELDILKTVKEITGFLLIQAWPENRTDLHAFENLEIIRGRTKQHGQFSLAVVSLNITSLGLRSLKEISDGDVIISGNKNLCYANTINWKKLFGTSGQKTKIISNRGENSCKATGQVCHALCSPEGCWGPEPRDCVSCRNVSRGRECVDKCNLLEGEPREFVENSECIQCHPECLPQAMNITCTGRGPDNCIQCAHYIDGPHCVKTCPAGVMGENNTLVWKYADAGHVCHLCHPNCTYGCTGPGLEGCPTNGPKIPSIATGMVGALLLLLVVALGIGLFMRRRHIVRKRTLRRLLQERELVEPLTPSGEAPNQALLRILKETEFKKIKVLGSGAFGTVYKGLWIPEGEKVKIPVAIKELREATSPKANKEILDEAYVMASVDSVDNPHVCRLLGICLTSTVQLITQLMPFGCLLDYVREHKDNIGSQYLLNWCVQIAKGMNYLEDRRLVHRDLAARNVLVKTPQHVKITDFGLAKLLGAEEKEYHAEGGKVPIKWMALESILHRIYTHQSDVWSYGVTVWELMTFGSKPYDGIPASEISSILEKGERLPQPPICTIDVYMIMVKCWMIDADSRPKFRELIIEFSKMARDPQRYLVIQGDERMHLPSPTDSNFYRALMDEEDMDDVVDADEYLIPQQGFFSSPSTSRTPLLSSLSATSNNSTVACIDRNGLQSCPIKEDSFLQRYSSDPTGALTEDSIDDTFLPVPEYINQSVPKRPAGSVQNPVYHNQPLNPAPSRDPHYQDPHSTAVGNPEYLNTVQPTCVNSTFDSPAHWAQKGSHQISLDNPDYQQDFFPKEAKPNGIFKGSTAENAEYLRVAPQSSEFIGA
Ba/F3 EGFR-V769_D770insASV, sequence (P00533 with tags, fused parts or gaps DUP767-769): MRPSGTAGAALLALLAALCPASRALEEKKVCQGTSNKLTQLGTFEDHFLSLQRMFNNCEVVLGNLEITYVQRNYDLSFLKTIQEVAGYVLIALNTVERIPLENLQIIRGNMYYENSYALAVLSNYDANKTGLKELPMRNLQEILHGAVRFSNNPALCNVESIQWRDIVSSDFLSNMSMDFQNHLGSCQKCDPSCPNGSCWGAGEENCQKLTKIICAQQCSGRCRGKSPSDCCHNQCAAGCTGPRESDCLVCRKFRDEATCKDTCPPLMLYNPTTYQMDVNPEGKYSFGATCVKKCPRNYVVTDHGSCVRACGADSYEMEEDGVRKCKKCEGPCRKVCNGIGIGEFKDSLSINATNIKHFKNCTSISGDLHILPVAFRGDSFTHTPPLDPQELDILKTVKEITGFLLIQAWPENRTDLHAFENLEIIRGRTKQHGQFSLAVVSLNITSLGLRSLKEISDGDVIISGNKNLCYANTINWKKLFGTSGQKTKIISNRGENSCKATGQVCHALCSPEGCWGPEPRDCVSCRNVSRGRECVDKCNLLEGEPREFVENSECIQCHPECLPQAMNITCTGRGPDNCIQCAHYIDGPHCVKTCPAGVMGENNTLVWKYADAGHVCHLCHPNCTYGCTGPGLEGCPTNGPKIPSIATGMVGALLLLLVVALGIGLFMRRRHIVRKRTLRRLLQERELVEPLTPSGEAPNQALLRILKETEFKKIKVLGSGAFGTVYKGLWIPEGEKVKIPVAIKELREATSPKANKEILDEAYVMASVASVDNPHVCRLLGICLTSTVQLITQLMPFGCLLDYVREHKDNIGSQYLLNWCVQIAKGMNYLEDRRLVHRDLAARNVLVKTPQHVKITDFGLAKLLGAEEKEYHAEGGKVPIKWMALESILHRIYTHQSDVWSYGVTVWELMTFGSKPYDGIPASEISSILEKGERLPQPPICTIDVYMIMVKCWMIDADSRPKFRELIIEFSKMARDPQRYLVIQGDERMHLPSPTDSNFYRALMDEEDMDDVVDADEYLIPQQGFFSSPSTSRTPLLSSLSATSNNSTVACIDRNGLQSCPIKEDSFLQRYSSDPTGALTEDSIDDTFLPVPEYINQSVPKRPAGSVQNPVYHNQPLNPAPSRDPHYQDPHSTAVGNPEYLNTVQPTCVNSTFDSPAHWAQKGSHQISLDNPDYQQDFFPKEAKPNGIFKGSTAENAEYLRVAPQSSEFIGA

As to `[2H]C1([2H])N(c2nc(Nc3cc(NC(=O)C=C)c(N(C)CCN(C)C)cc3OC)ncc2C(=O)OC(C)C)c2ccc(C)nc2C1(C)C` [Example 47, isopropyl 2-((5-acrylamido-4-((2-(dimethylami-no)ethyl)(methyl)amino)-2-methoxy-phenyl)amino)-4-(3,3,5-trimethyl-2,3-dihydro-1H-pyrrolo[3,2-b]pyridin-1-yl-2,2-d2)pyrimidine-5-carboxylate], the IC50 with A431 (EGFR-WT) stood at 56.1 nM. In addition, the GI50 was found to be 22.4 nM in experiment [1] and 13.4 nM in experiment [2].
`[2H]C1([2H])N(c2nc(Nc3cc(NC(=O)C=C)c(N4CCC[C@@H]4CN(C)C)cc3OC)ncc2C(=O)OC(C)C)c2ccc(C)nc2C1(C)C` [Example 48, isopropyl (R)-2-((5-acrylamido-4-(2-((dimethyl-amino)methyl)pyrrolidin-1-yl)-2-meth-oxyphenyl)amino)-4-(3,3,5-trimethyl-2,3-dihydro-1H-pyrrolo[3,2-b]pyridin-1-yl-2,2-d2)pyrimidine-5-carboxylate] yielded a concentration for half-maximal inhibition (IC50) in the experiment on A431 (EGFR-WT) of 4.4 nM. For the same molecule, the values for the GI50 in experiment [1] and in experiment [2] were 37 nM and 11.1 nM, respectively.
The like results for `[2H]C1([2H])N(c2nc(Nc3cc(NC(=O)C=C)c(N4CC[C@@H](N(C)C)C4)cc3OC)ncc2C(=O)OC(C)C)c2ccc(C)nc2C1(C)C` [Example 49, isopropyl (R)-2-((5-acrylamido-4-(3-(dimethyl-amino)pyrrolidin-1-yl)-2-methoxy-phenyl)amino)-4-(3,3,5-trimethyl-2,3-dihydro-1H-pyrrolo[3,2-b]pyridin-1-yl-2,2-d2)pyrimidine-5-carboxylate] were, in that order, 1420 nM, 24.4 nM and 31.3 nM.
For the molecule `[2H]C1([2H])N(c2nc(Nc3cc(NC(=O)C=C)c(N4CC(N(C)C)C4)cc3OC)ncc2C(=O)OC(C)C)c2ccc(C)nc2C1(C)C` [Example 50, isopropyl 2-((5-acrylamido-4-(3-(dimethylami-no)azetidin-1-yl)-2-methoxy-phenyl)amino)-4-(3,3,5-trimethyl-2,3-dihydro-1H-pyrrolo[3,2-b]pyridin-1-yl-2,2-d2)pyrimidine-5-carboxylate], 813 nM corresponded to half-maximal inhibition in the experiment with A431 (EGFR-WT) (IC50). The values for the GI50 in experiment [1] and in experiment [2] were 27.9 nM and 36.7 nM, respectively.
In the experiment with A431 (EGFR-WT), `[2H]C1([2H])N(c2nc(Nc3cc(NC(=O)C=C)c(N(C)C[C@@H]4CCCN4C)cc3OC)ncc2C(=O)OC(C)C)c2ccc(C)nc2C1(C)C` [Example 52, isopropyl (S)-2-((5-acrylamido-2-methoxy-4-(methyl((1-methylpyrrolidin-2-yl)methyl)amino)phenyl)amino)-4-(3,3,5-trimethyl-2,3-dihydro-1H-pyrrolo[3,2-b]pyridin-1-yl-2,2-d2)pyrimidine-5-carboxylate] yielded an IC50 of 185 nM. For the same molecule, the GI50 in experiment [1] was 61.9 nM; in experiment [2], 24.1 nM.
In the case of `C=CC(=O)Nc1cc(Nc2ncc(C(=O)OC(C)C)c(N3CC(C)(C)c4nc(C)ccc43)n2)c(O)cc1N(C)CCN(C)C` [Example 54, isopropyl 2-((5-acrylamido-4-((2-(dimethylami-no)ethyl)(methyl)amino)-2-hydroxy-phenyl)amino)-4-(3,3,5-trimethyl-2,3-dihydro-1H-pyrrolo[3,2-b]pyridin-1-yl)pyrimidine-5-carboxylate], in the experiment on A431 (EGFR-WT), inhibition was half-maximal at 1140 nM (IC50). For the same molecule, the GI50 stood at 81.9 nM in experiment [1] and 77 nM in experiment [2].
In the experiment with A431 (EGFR-WT), `C=CC(=O)Nc1cc(Nc2ncc(C(=O)OC(C)C)c(N3CC(C)(C)c4nc(C)ccc43)n2)c(OC)cc1NCCN(C)C` [Example 55, isopropyl 2-((5-acrylamido-4-((2-(dimethylami-no)ethyl)amino)-2-methoxy-phenyl)amino)-4-(3,3,5-trimethyl-2,3-dihydro-1H-pyrrolo[3,2-b]pyridin-1-yl)pyrimidine-5-carboxylate] returned a half-inhibitory concentration (IC50) of 432 nM. In addition, the GI50 stood at 52 nM in experiment [1] and 22.8 nM in experiment [2].
`C=CC(=O)Nc1cc(Nc2ncc(C(=O)OC(C)C)c(N3CC(C)(C)c4nc(C)ccc43)n2)c(OC)cc1N(C)CCN(CC)CC` [Example 56, isopropyl 2-((5-acrylamido-4-((2-(diethylami-no)ethyl)(methyl)amino)-2-methoxy-phenyl)amino)-4-(3,3,5-trimethyl-2,3-dihydro-1H-pyrrolo[3,2-b]pyridin-1-yl)pyrimidine-5-carboxylate] showed an IC50 in the experiment on A431 (EGFR-WT) of 301 nM. Moreover, the GI50 in experiment [1] is 91.1 nM; in experiment [2], 33.5 nM.
The like results for `C=CC(=O)Nc1cc(Nc2ncc(C(=O)OC(C)C)c(N3CC(C)(C)c4nc(Cl)ccc43)n2)c(OC)cc1N(C)CCN(C)C` [Example 57, isopropyl 2-((5-acrylamido-4-((2-(dimethylami-no)ethyl)(methyl)amino)-2-methoxy-phenyl)amino)-4-(5-chloro-3,3-dimethyl-2,3-dihydro-1H-pyrrolo[3,2-b]pyridin-1-yl)pyrimidine-5-carboxylate] were, in that order, 988 nM, 62.4 nM and 23.3 nM.
In the same order, the values of `C=CC(=O)Nc1cc(Nc2ncc(C(=O)OC(C)C)c(N3CC(C)(C)c4nc(C)ccc43)n2)c(OC)cc1N1C[C@H]2CN(C)C[C@H]2C1` [Example 58, isopropyl 2-((5-acrylamido-2-methoxy-4-((3aR,6aS)-5-methylhexahydro-pyrrolo[3,4-c]pyrrol-2(1H)-yl)phenyl)amino)-4-(3,3,5-trimethyl-2,3-dihydro-1H-pyrrolo[3,2-b]pyridin-1-yl)pyrimidine-5-carboxylate] are 1280 nM, 38.1 nM and 28.7 nM.
`C=CC(=O)Nc1cc(Nc2ncc(C(=O)OC(C)C)c(N3CC(C)(C)c4nc(C)ccc43)n2)c(OC)nc1N1C[C@@H](F)C[C@@H]1CN(C)C` [Example 59, isopropyl 2-((5-acrylamido-6-((2R,4S)-2-((dimethylamino)methyl)-4-fluoro-pyrrolidin-1-yl)-2-methoxypyridin-3-yl)amino)-4-(3,3,5-trimethyl-2,3-dihydro-1H-pyrrolo[3,2-b]pyridin-1-yl)pyrimidine-5-carboxylate] registered a 50% inhibitory concentration (IC50) in the experiment on A431 (EGFR-WT) of 150 nM. The GI50 in experiment [1] and in experiment [2] was 18.4 nM each time.
The molecule `C=CC(=O)Nc1cc(Nc2ncc(C(=O)OC(C)C)c(N3CC(C)(C)c4nc(C)ccc43)n2)c(OC)cc1N1CCC[C@H](N(C)C)C1` [Example 60, isopropyl (S)-2-((5-acrylamido-4-(3-(dimethyl-amino)piperidin-1-yl)-2-methoxy-phenyl)amino)-4-(3,3,5-trimethyl-2,3-dihydro-1H-pyrrolo[3,2-b]pyridin-1-yl)pyrimidine-5-carboxylate] came in with a half-inhibitory concentration (IC50) in the experiment on A431 (EGFR-WT) of 761 nM. Further, the values for the GI50 in experiment [1] and in experiment [2] were 37.9 nM and 31.9 nM, respectively.
In the experiment with A431 (EGFR-WT), `C=CC(=O)Nc1cc(Nc2ncc(C(=O)OC(C)C)c(N3CC(C)(C)c4nc(C)ccc43)n2)c(OC)cc1N(C)C[C@H]1CCCN1C` [Example 62, isopropyl (R)-2-((5-acrylamido-2-methoxy-4-(methyl((1-methylpyrrolidin-2-yl)methyl)amino)phenyl)amino)-4-(3,3,5-trimethyl-2,3-dihydro-1H-pyrrolo[3,2-b]pyridin-1-yl)pyrimidine-5-carboxylate] had an IC50 of 120 nM. Besides, the GI50 stood at 16 nM in experiment [1] and 12.3 nM in experiment [2].
